Measured values as given in patent publication US5902794A (priority 1997, dated 1999).

What was measured:
DMBA-1 = assay: growth of transplantable DMBA-1 rat mammary carcinoma; format: in vivo; conditions: pellet with 10 mg cAMP analogue, day 7
Experimental: DMBA-1, a variant of primary hormonedependent DMBA tumor,
hormoneindependent and transplantable.
(§1) 8Cl-cAMP and DBcAMP were given as a 20mg pellet consisting of 10 mg of […]

[1] = tested on: HT-29 colon cancer cell line
[2] = tested on: breast and colon cancer cells; assay: effect on cell morphology; format: cell-based, human
Text: The photographs were taken on Day 4, ×160.
Furthermore, the synergistic growth inhibitory effect of C-6 and C-8 analogue combinations was also reflected in the change in the cell morphology.

R^I receptor = conditions: cited from earlier work
[3] = tested on: R^II cAMP receptor protein (MDA-MB-231); assay: photoaffinity labelling of R^II cAMP receptor protein, MDA-MB-231; format: cell-based, human; conditions: 10 microM, 3 days; relative to control R^I
Experimental: (§2) M is marker proteins of known molecular weight.
(§3) The incubations were carried out at 23° C. for 60 minutes in 96-well immunoplates. The reaction mixtures were then irradiated for 30 seconds at 254 nm, placing a Mineralite UVS-11 hand lamp directly onto the plate. The samples were mixed with 25 microliters of 3× sample buffer (3% SDS, 15% beta-mercaptoethanol, 30 mM Tris, 30% glycerol, 1% bromophenol blue saturated solution), boiled for 3 minutes, and centrifuged at 700×g for five minutes. The samples containing 50-100 micrograms of protein were subjected to 0.05% SDS-12% PAGE. The gels were fixed, dried, and exposed to X-ray films overnight. The protein concentrations were determined by the method of Lowry et al., (J. Biol. Chem. 193: 265-275, 1951) with bovine serum albumin as standard.
(§4) The levels of the receptor proteins are expressed relative to the R^I level in the untreated control cells of MDA-MB-231 and LS-174T, which are each set equal to 1.0 O.D.; the scale was expanded to differentiate the lower intensity bands.

LS-174T = assay: growth of LS-174T human colon carcinoma in nude mice; format: in vivo; conditions: nude mouse, pellet with 10 mg cAMP analogue, day 7
Experimental: LS174T, human colon cancer line was s.c. grown in nude mice and a solid
tumor, transplantable, was obtained.
as §1

MDA-MB-231 = assay: growth of MDA-MB-231 cells; format: cell-based; conditions: Homo sapiens, MDA-MB-231, 72 h; 10 microM, 3 days
Experimental: as §2
(§5) All breast cancer cell lines were grown in IMEM supplemented with 10% fetal bovine serum, 20 mM HEPES, penicillin-streptomycin, and extra glutamine. Colon carcinoma cell lines were grown in EMEM supplemented with 10% FBS, EMEM, NEAA, HEPES 20 mM, extra glutamine, and penicillin-streptomycin. The cells were grown at 37° C. in humidified incubators in an atmosphere of 5% CO2.
(§6) For cell growth experiments, 2-3×10^5 cells/60 mm dish were seeded, and 24 hours later (Day 0), the medium was removed, and fresh medium and the additives were added then and every 48 hours thereafter The compounds of the present invention were added using 100× concentrated stock solutions. At desired times, cell counts in duplicate were performed on a Coulter counter after harvesting the cells with gentle trypsinization.

murine leukemia L1210 = assay: life span of L1210-inoculated BDF1 mice; format: in vivo, mouse
Text: | Infusions by Harvard pumps.

HL-60 cells = assay: differentiation markers (surface antigens) in HL-60 cells; format: cell-based, human; conditions: three days
[4] = tested on: MCF-7 ras breast cancer cell line; assay: synergistic growth inhibition by C-6 and C-8 analogue combination; format: cell-based; conditions: Homo sapiens, MCF7; alone, 1.0 μM; read-out: percentage growth inhibition of analogue added alone
Experimental: as §5, §6
Synergism quotient was defined as the net growth inhibitory effect of the analogue combination divided by the sum of the net analogue effects on growth inhibition A quotient of >1 indicates a synergistic effect, while a quotient of <1 indicates an antagonistic effect.
Synergism of growth inhibition was determined by treatment of
cells with C-6 analogues and C-8 analogues alone and in combination at
Day 0 and Day 2 and counting the cell number at Day 4

[5] = tested on: LS-174T colon cancer line; assay: growth inhibition and release from inhibition, LS-174T (FIG. 3); format: cell-based, human
Experimental: 1×10^5 cells/60 mm dish were seeded, and 24 hours later (Day 0), the medium was removed and fresh medium and additives were added then and every 48 hours thereafter. […] The triplicate cell count for each experimental point never varied by more than 10%.
as §5

R^II = conditions: cited from earlier work
[6] = tested on: R^I cAMP receptor protein (MDA-MB-231); assay: photoaffinity labelling of R^I cAMP receptor protein, MDA-MB-231; format: cell-based, human; conditions: 10 microM, 3 days; control 1.0
Experimental: as §2, §3, §4

[7] = tested on: DMBA-induced mammary carcinomas; assay: in vivo growth of DMBA-induced mammary carcinomas in rats; set-up: species or system rat
Experimental: […] |DMBA-induced mammary carcinomas in rats […] | 10 mg. cholesterol), was implanted on day 0 and day 14.

[8] = tested on: R^I cAMP receptor protein (Molt-4); assay: R^I cAMP receptor protein in Molt-4 leukemic cells; format: cell-based, human; conditions: 5 micromol/L, three days
Text: M marker proteins of known molecular weight. […] The resulting supernatants were used as cell lysates. […] ND=nondetectable.

## Nc1ncnc2c1nc(Cl)n2[C@@H]1O[C@@H]2COP(=O)(O)O[C@H]2[C@H]1O [8-Cl-cAMP]
DMBA-1
  Change in mean tumor volume: 1.60 cm^3
[1]
  8-Cl-adenosine in cell extracts: no 8-Cl-adenosine was present
  8-Cl-adenosine in cell extracts or medium: 8-Cl-adenosine was not detected
  8-Cl-adenosine in medium: no 8-Cl-adenosine was present
  cell penetration of intact compound: penetrated the cell
[2]; 1 microM alone, four days
  morphological change: did not induce a change in the cell morphology
[2]; 50 microM, four to five days
  morphological change: characteristic morphological change
R^I receptor
  site selectivity of binding, R^I: binds to site 2
[3]
  R^II relative level: 0.15 ± 0.01
LS-174T
  Change in mean tumor volume: 0.58 cm^3
LS-174T; none = 100
  Change in mean tumor volume (%): 60%
MDA-MB-231
  activity at 10 µM: 45%
Murine leukemia L1210; 104 mg/kg bolus injection, seven consecutive days
  antitumor effect: no antitumor effect
Murine leukemia L1210; 104 mg/kg bolus, seven consecutive days
  tolerability in L1210-bearing mice: tolerated
Murine leukemia L1210; 104 mg/kg/day constant infusion, five days
  increase in mean life span: 37%
HL-60 cells
  markers of immature progenitor cells (My7, My9), in words: decrease in markers related to the immature progenitor cells
  monocyte-specific surface antigens (MO2, OKM5), in words: marked increase in the expression
[4]
  inhibition at 1 µM: 20%
[5]
  mechanism of growth inhibition / cell viability: decrease in the rate of replication without affecting cell viability
[5]; 8-Cl-cAMP 10 microM or 8-Cl-adenosine 5 microM
  cell growth during treatment: marked reduction in cell growth
[5]; after removal of additives
  growth after cessation of treatment: resumed growth almost immediately
R^II
  site selectivity of binding, R^II: selectively binds to site 1
[6]
  R^I relative level: 0.25 ± 0.03
[7]; 10 mg pellet implanted twice every two weeks
  tumor growth, in words: completely stopped tumor growth
[7]; within 30 days
  tumor regression within 30 days: ~100%
[8]
  R^I receptor protein, in words: markedly decreased
